Measured values as given in patent publication US8053453B2, “Pyrazolone compounds and thrombopoietin receptor activator” (Nissan Chemical Industries, Ltd., priority 2002, dated 2011).
Where two headings read alike, the source gives them in different places.

Biological target: T1, human TPO receptor (Homo sapiens, UniProt P40238)
T1 construct: expressed in transfected cells
T1 sequence (P40238 26-635): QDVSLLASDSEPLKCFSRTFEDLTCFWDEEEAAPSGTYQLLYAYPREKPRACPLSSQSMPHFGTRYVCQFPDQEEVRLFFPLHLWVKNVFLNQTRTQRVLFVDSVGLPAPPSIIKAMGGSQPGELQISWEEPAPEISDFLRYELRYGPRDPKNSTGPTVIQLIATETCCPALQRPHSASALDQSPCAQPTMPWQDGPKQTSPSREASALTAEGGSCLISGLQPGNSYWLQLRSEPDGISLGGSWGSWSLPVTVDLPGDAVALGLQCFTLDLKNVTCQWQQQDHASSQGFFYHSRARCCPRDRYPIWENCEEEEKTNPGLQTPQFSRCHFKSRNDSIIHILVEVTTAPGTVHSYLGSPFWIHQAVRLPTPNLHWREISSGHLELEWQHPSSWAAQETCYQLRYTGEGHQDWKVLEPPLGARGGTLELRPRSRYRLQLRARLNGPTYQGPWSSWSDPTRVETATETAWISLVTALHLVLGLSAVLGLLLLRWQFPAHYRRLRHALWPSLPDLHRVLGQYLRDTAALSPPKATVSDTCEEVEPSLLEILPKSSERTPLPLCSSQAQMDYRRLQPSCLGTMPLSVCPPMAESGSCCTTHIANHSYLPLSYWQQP
Assay: Proliferation of TPO-dependent cell line UT7/EPO-mpl, MTT method (Assay Examples 1, 3, 4)
Format: cell-based
Details: UT7/EPO-mpl cells; for Emax / Efficacy (%) (maximal growth rate): value in the presence of 10 ng/ml TPO taken as 100% standard, method of Assay Example 1; for Emax: read-out: Efficacy (%) (maximal growth rate); for EC50: concentration giving 50% of the maximum cell growth observed with the same compound
Procedure: The reactivity of Synthetic Example 56, the compound of the present invention, with thrombopoietin (TPO) receptor was assayed using a human leukemic cell line, UT7/EPO-mpl.
UT7/EPO-mpl is a stable transformed cell line obtained by introducing into human leukemic cell line UT7/EPO a vector that induces expression of human TPO receptor (c-mp1) under control of a cytomegaloviral promoter by the method of Takatoku et al. (J. Biol. Chem., 272:7259-7263 (1997)). […] These two cell lines were subcultured in Iscove's modified Dulbecco's medium (IMDM; GIBCO) containing 10% fetal bovine serum (FBS; TRACE SCIENTIFIC) using a CO2 incubator (5% CO2, 37° C.).
The subcultured cells described above were washed twice with phosphate buffered saline (PBS) and suspended in IMDM containing 10% FBS at a cell density of 6×10^4 cells/ml. The cell suspension was transferred to a 96-well tissue culture plate (CORNING) in 100-μl aliquots. Then either TPO (PeproTech EC) or Synthetic Example 56 dissolved in dimethylsulfoxide (DMSO) was diluted 83-fold with IMDM containing 10% FBS and added to the aforementioned cell suspension in 20-μl aliquots. The suspension was incubated in a CO2 incubator (5% CO2, 37° C.) for 4 days. Cell proliferation was assayed according to the method of Mosmann et al. (J. Immunol. Methods, 65:55-63 (1983)). A 10-μl aliquot of 5 mg/ml MTT reagent (SIGMA) was added to each well of the tissue culture plate and the plate was incubated at 37° C. for 4 h. The formazan pigment generated was dissolved by adding 150 μl per well of 0.1 M HCl/isopropanol solution and the absorbance of the resulting pigment solution was measured at 550 nm with a 96-well microplate reader (BIO-RAD, M450).
The following Synthetic Examples were tested according to the method of Assay Example 1 to determine the maximal growth rate (efficacy), expressed by taking the value with human leukemic cell line UT7/EPO-mpl observed in the presence of 10 ng/ml TPO as 100% standard, and the concentration of each compound that yields a growth rate corresponding to 50% of the maximum cell growth observed with the same compound (EC50).
Synthetic Example 56, the compound of the present invention, and four compounds (Reference Synthetic Examples 1 to 4) described in a publication of international patent application (Publication No. WO01/34585, applied by SmithKline Beecham Corp.) were tested according to the method of Assay Example 1.

[1] = read-out: EC50 (ng/ml) (converted)

Emax | EC50 [1] | EC50 | Efficacy (%) (maximal growth rate) | Structure (SMILES)
7% | – | – | – | Cc1ccc(-n2nc(C)c(C=NN3C(=O)C(=Cc4ccc(C(=O)O)cc4)SC3=S)c2O)cc1C [Reference Synthetic Example 1, 5-(4-carboxybenzylidene)-3-[(1-{3,4-dimethylphenyl}-5-hydroxy-3-methyl-1H-pyrazol-4-ylmethylene)amino]-2-thioxothiazolidin-4-one, reference compound]
12% | – | – | – | Cc1ccc(-n2nc(C)c(C=NN3C(=O)C(=Cc4cccc(C(=O)O)c4)SC3=S)c2O)cc1C [Reference Synthetic Example 2, 5-(3-carboxybenzylidene)-3-[(1-{3,4-dimethylphenyl}-5-hydroxy-3-methyl-1H-pyrazol-4-ylmethylene)amino]-2-thioxothiazolidin-4-one, reference compound]
7% | – | – | – | Cc1ccc(-n2nc(C)c(C=NN3CC(=O)N(c4cccc(C(=O)O)c4)C3=S)c2O)cc1C [Reference Synthetic Example 3, 3-(3-carboxyphenyl)-1-[(1-{3,4-dimethylphenyl}-5-hydroxy-3-methyl-1H-pyrazol-4-ylmethylene)amino]-2-thioxoimidazolidin-4-one, reference compound]
67% | 3.02 µM | – | – | Cc1ccc(-n2nc(C)c(C=NN3CC(=O)N(c4ccc(C(=O)O)cc4)C3=S)c2O)cc1C [Reference Synthetic Example 4, 3-(4-carboxyphenyl)-1-[(1-{3,4-dimethylphenyl}-5-hydroxy-3-methyl-1H-pyrazol-4-ylmethylene)amino]-2-thioxoimidazolidin-4-one, reference compound]
– | – | 7.4 ng/mL | 74% | CC1=NN(c2ccc(I)cc2)C(=O)C1=C(C)NNC(=O)c1ccc(O)cc1O [compound 1]
– | – | 6.3 ng/mL | 89% | CC1=NN(c2ccc(C(C)(C)C)cc2)C(=O)C1=C(C)NNC(=O)c1cc(O)cc(O)c1 [compound 2]
– | – | 15 ng/mL | 82% | CC1=NN(c2ccc(C)c(C)c2)C(=O)C1=C(C)NNC(=O)c1cc(O)cc(O)c1 [compound 3]
– | – | 15 ng/mL | 53% | COC(=O)c1ccc(C(=O)NNC(C)=C2C(=O)N(c3ccc(C(C)(C)C)cc3)N=C2C)cc1 [compound 4]
– | – | 3.4 ng/mL | 86% | CC1=NN(c2ccc(C(C)(C)C)cc2)C(=O)C1=C(C)NNC(=O)c1ccc(C(=O)O)cc1 [compound 5]
64% | 0.0176 µM | – | – | COC(=O)c1ccc(C(=O)NNC(C)=C2C(=O)N(c3ccc(C)c(C)c3)N=C2C)cc1 [compound 6]
– | – | 2.2 ng/mL | 99% | CC1=NN(c2ccc(C)c(C)c2)C(=O)C1=C(C)NNC(=O)c1ccc(C(=O)O)cc1 [compound 7]
52% | 0.0673 µM | – | – | COC(=O)c1ccc(C(=O)NNC(C)=C2C(=O)N(c3cccc(C(F)(F)F)c3)N=C2C)cc1 [compound 8]
– | – | 5.1 ng/mL | 90% | CC1=NN(c2cccc(C(F)(F)F)c2)C(=O)C1=C(C)NNC(=O)c1ccc(C(=O)O)cc1 [compound 9]
78% | 0.0434 µM | – | – | COC(=O)c1ccc(C(=O)NNC(C)=C2C(=O)N(c3ccc(C(F)(F)F)cc3)N=C2C)cc1 [compound 10]
– | – | 2.0 ng/mL | 83% | CC1=NN(c2ccc(C(F)(F)F)cc2)C(=O)C1=C(C)NNC(=O)c1ccc(C(=O)O)cc1 [compound 11]
– | – | 76 ng/mL | 100% | CC1=NN(c2ccc(C(C)(C)C)cc2)C(=O)C1=C(C)NNC(=O)c1cccc(C(=O)O)c1 [compound 12]
– | – | 280 ng/mL | 99% | CC1=NN(c2ccc(C)c(C)c2)C(=O)C1=C(C)NNC(=O)c1cccc(C(=O)O)c1 [compound 13]
– | – | 72 ng/mL | 91% | CC1=NN(c2ccccc2)C(=O)C1=C(C)NNC(=O)c1cccc([N+](=O)[O-])c1 [compound 14]
